Key:
[1] = system: DIGSA; test: Pre-emergence action against DIGSA, 1280 g/ha; type: in vivo, Digitaria sanguinalis; details: visual scoring after about 3 weeks vs untreated controls, 100% = plants have died, 0% = like control plants
Outline: (§1)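 Visual percent-effect ratings (0% = like control, 100% = plants dead) were taken about 3 weeks after pre-emergence soil-surface application of WP/EC aqueous formulations with 0.5% additive, 600 L water/ha. Seeds were sown in sandy loam and grown in the greenhouse.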

[2] = system: ECHCG; test: Pre-emergence action against ECHCG, 1280 g/ha; type: in vivo, Echinochloa crus-galli; details: visual scoring after about 3 weeks vs untreated controls, 100% = plants have died, 0% = like control plants
Outline: as §1

[3] = system: LOLRI; test: Pre-emergence action against LOLRI, 1280 g/ha; type: in vivo, Lolium rigidum; details: visual scoring after about 3 weeks vs untreated controls, 100% = plants have died, 0% = like control plants
Outline: as §1

[4] = system: POAAN; test: Pre-emergence action against POAAN, 1280 g/ha; type: in vivo, Poa annua; details: visual scoring after about 3 weeks vs untreated controls, 100% = plants have died, 0% = like control plants
Outline: as §1

[5] = system: SETVI; test: Pre-emergence action against SETVI, 1280 g/ha; type: in vivo, Setaria viridis; details: visual scoring after about 3 weeks vs untreated controls, 100% = plants have died, 0% = like control plants
Outline: as §1

[6] = system: AMARE; test: Pre-emergence action against AMARE, 1280 g/ha; type: in vivo, Amaranthus retroflexus; details: scored visually after about 3 weeks vs untreated controls (100% = plants have died)
Outline: as §1

[7] = system: MATIN; test: Pre-emergence action against MATIN, 1280 g/ha; type: in vivo, Tripleurospermum inodorum (Matricaria inodora); details: scored visually after about 3 weeks vs untreated controls (100% = plants have died)
Outline: as §1

[8] = system: STEME; test: Pre-emergence action against STEME, 1280 g/ha; type: in vivo, Stellaria media; details: scored visually after about 3 weeks vs untreated controls (100% = plants have died)
Outline: as §1

[9] = system: ALOMY; test: Post-emergence action against ALOMY, 1.28 kg/ha; type: in vivo, Alopecurus myosuroides; details: dosage 1280 g/ha, visual rating about 3 weeks after treatment vs untreated controls
Outline: (§2)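 Herbicidal action is estimated by eye after about three weeks under optimum greenhouse conditions, on a 0–100% scale against untreated plants. Compounds are applied post-emergence to one-leaf-stage weeds as aqueous WP or EC preparations containing 0.5% additive, sprayed at 600 L/ha.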

[10] = system: DIGSA; test: Post-emergence action against DIGSA, 1.28 kg/ha; type: in vivo, Digitaria sanguinalis; details: dosage 1280 g/ha, visual rating about 3 weeks after treatment vs untreated controls
Outline: as §2

[11] = system: SETVI; test: Post-emergence action against SETVI, 1.28 kg/ha; type: in vivo, Setaria viridis; details: dosage 1280 g/ha, visual rating about 3 weeks after treatment vs untreated controls
Protocol: (§3) • a) Seeds of mono- and dicotyledonous weed plants are placed in plastic pots in sandy loam soil (twin sowing with one species each of mono- or dicotyledonous weed plants per pot), covered with soil and cultivated in a greenhouse under controlled growth conditions. 2 to 3 weeks after sowing, the test plants are treated at the one-leaf stage. The compounds of the invention, formulated in the form of wettable powders (WP) or as emulsion concentrates (EC), are applied to the green parts of the plants as aqueous suspension or emulsion with addition of 0.5% additive at a water application rate equivalent to 600 litres per hectare. After the test plants have been kept in the greenhouse under optimum growth conditions for about 3 weeks, the activity of the preparations is rated visually in comparison to untreated controls. For example, 100% activity=the plants have died, 0% activity=like control plants. As shown by the results, compounds of the general formula (I) of the invention, in post-emergence treatment, have very good herbicidal efficacy (90% to 100% herbicidal action) against harmful plants such as Abutilon theophrasti, Digitaria sanguinalis, Echinochloa crus-galli, Matricaria inodora, Poa annua, at an application rate of 1.28 kg of active substance per hectare.

[12] = system: AMARE; test: Post-emergence action against AMARE, 1.28 kg/ha; type: in vivo, Amaranthus retroflexus; details: dosage 1280 g/ha, visual rating about 3 weeks after treatment vs untreated controls (100% = plants died)
Outline: as §2

[13] = system: VERPE; test: Post-emergence action against VERPE, 1.28 kg/ha; type: in vivo, Veronica persica; details: dosage 1280 g/ha, visual rating about 3 weeks after treatment vs untreated controls (100% = plants died)
Outline: as §2

[14] = system: ALOMY; test: Pre-emergence action at 320 g/ha against ALOMY; type: in vivo, Alopecurus myosuroides; details: scored visually after about 3 weeks vs untreated controls (100% = plants have died)
Source text: (§4) b) Seeds of monocotyledonous and dicotyledonous weed plants and crop plants are placed in plastic or organic planting pots and covered with soil. The compounds of the invention, formulated in the form of wettable powders (WP) or as emulsion concentrates (EC), are then applied onto the surface of the covering soil as aqueous suspension or emulsion with addition of 0.5% additive at a water application rate of 600 l/ha (converted). After the treatment, the pots are placed in a greenhouse and kept under good growth conditions for the trial plants. After about 3 weeks, the effect of the preparations is scored visually in comparison with untreated controls as percentages. For example, 100% activity=the plants have died, 0% activity=like control plants. Tables 13 to 26 below show the effects of selected compounds of the general formula (I) on various harmful plants and at an application rate corresponding to 320 g/ha, which were obtained by the experimental procedure mentioned above.

[15] = system: LOLRI; test: Pre-emergence action at 320 g/ha against LOLRI; type: in vivo, Lolium rigidum; details: visual scoring after about 3 weeks vs untreated controls
Source text: as §4

[16] = system: AMARE; test: Pre-emergence action at 320 g/ha against AMARE; type: in vivo, Amaranthus retroflexus; details: visual scoring after about 3 weeks vs untreated controls
Source text: as §4

[17] = system: MATIN; test: Pre-emergence action at 320 g/ha against MATIN; type: in vivo, Tripleurospermum inodorum (Matricaria inodora); details: visual scoring after about 3 weeks vs untreated controls
Source text: as §4

[18] = system: POLCO; test: Pre-emergence action at 320 g/ha against POLCO; type: in vivo, Fallopia convolvulus (Polygonum convolvulus); details: visual scoring after about 3 weeks vs untreated controls
Source text: as §4

[19] = system: VERPE; test: Pre-emergence action at 320 g/ha against VERPE; type: in vivo, Veronica persica; details: visual scoring after about 3 weeks vs untreated controls
Source text: as §4

[20] = system: VIOTR; test: Pre-emergence action at 320 g/ha against VIOTR; type: in vivo, Viola tricolor; details: dosage 320 g/ha
Source text: as §4

[21] = system: DIGSA; test: Pre-emergence action at 320 g/ha against DIGSA; type: in vivo, Digitaria sanguinalis; details: visual scoring after about 3 weeks vs untreated controls
Source text: as §4

[22] = system: ALOMY; test: Pre-emergence action against ALOMY, 1280 g/ha; type: in vivo, Alopecurus myosuroides; details: visual scoring after about 3 weeks vs untreated controls, 100% = plants have died, 0% = like control plants
Outline: as §1

[23] = system: VERPE; test: Pre-emergence action against VERPE, 1280 g/ha; type: in vivo, Veronica persica; details: scored visually after about 3 weeks vs untreated controls (100% = plants have died)
Outline: as §1

[24] = system: ECHCG; test: Post-emergence action against ECHCG, 1.28 kg/ha; type: in vivo, Echinochloa crus-galli; details: dosage 1280 g/ha, visual rating about 3 weeks after treatment vs untreated controls
Protocol: as §3

[25] = system: POAAN; test: Post-emergence action against POAAN, 1.28 kg/ha; type: in vivo, Poa annua; details: dosage 1280 g/ha, visual rating about 3 weeks after treatment vs untreated controls
Outline: as §2

[26] = system: ABUTH; test: Post-emergence action against ABUTH, 1.28 kg/ha; type: in vivo, Abutilon theophrasti; details: dosage 1280 g/ha, visual rating about 3 weeks after treatment vs untreated controls (100% = plants died)
Protocol: as §3

[27] = system: MATIN; test: Post-emergence action against MATIN, 1.28 kg/ha; type: in vivo, Tripleurospermum inodorum (Matricaria inodora); details: dosage 1280 g/ha, visual rating about 3 weeks after treatment vs untreated controls (100% = plants died)
Outline: as §2

[28] = system: STEME; test: Post-emergence action against STEME, 1.28 kg/ha; type: in vivo, Stellaria media; details: dosage 1280 g/ha, visual rating about 3 weeks after treatment vs untreated controls (100% = plants died)
Protocol: as §3

[29] = system: AVEFA; test: Pre-emergence action at 320 g/ha against AVEFA; type: in vivo; details: visual scoring after about 3 weeks vs untreated controls
Source text: as §4

[30] = system: SETVI; test: Pre-emergence action at 320 g/ha against SETVI; type: in vivo, Setaria viridis; details: visual scoring after about 3 weeks vs untreated controls
Source text: as §4

SMILES | Pre-emergence action against DIGSA [1] [%] | Pre-emergence action against ECHCG [2] [%] | Pre-emergence action against LOLRI [3] [%] | Pre-emergence action against POAAN [4] [%] | Pre-emergence action against SETVI [5] [%] | Pre-emergence action against AMARE [6] [%] | Pre-emergence action against MATIN [7] [%] | Pre-emergence action against STEME [8] [%] | Post-emergence action against DIGSA [10] [%] | Post-emergence action against SETVI [11] [%] | Post-emergence action against AMARE [12] [%] | Pre-emergence action at 320 g/ha against ALOMY in % [14] [%] | Pre-emergence action against LOLRI in % [15] [%] | Pre-emergence action against AMARE in % [16] [%] | Pre-emergence action against MATIN in % [17] [%] | Pre-emergence action against POLCO in % [18] [%] | Pre-emergence action against VERPE in % [19] [%] | Pre-emergence action against VIOTR in % [20] [%] | Pre-emergence action against DIGSA in % [21] [%] | also measured
CCOC(=O)COc1nn(-c2ccc(F)cc2F)c(-c2ccc(F)nc2)c1F [VII-027] | 90 | 90 | 100 | 90 | 90 | 90 | 90 | 100 | 100 | 90 | 90 |  |  |  |  |  |  |  |  | Post-emergence action against ALOMY [9]: 100%; Post-emergence action against VERPE [13]: 90%
C[C@@H](Oc1nn(-c2ccccc2)c(-c2cccnc2)c1Cl)C(=O)O [VII-042] |  |  |  |  |  |  |  |  |  |  |  | 90 | 100 | 100 | 90 | 100 | 90 | 100 |  | 
CCOC(=O)C(F)Oc1nn(-c2ccccc2F)c(-c2ccc(F)nc2)c1Br (centres unmarked) [VII-071-a] |  |  |  |  |  |  |  |  |  |  |  | 80 | 100 | 100 | 90 | 90 | 80 | 100 | 90 | 
C#Cc1c(OCC(=O)OCC)nn(-c2ccccc2F)c1-c1ccc(F)nc1 [VII-088] | 100 | 100 | 100 | 100 | 100 | 100 | 100 | 100 | 100 | 90 | 100 |  |  |  |  |  |  |  |  | Pre-emergence action against ALOMY [22]: 100%; Pre-emergence action against VERPE [23]: 100%; Post-emergence action against ECHCG [24]: 100%; Post-emergence action against POAAN [25]: 100%; Post-emergence action against ABUTH [26]: 90%; Post-emergence action against MATIN [27]: 100%; Post-emergence action against STEME [28]: 90%
CCOC(=O)COc1nn(-c2ccccc2)c(-c2ccc(F)nc2)c1Br [VII-116] |  |  |  |  |  |  |  |  |  |  |  | 100 | 100 | 100 | 90 | 90 | 100 | 90 | 100 | Pre-emergence action against AVEFA in % [29]: 90%; Pre-emergence action against SETVI in % [30]: 100%
